Bridge positions count the residues as written; N and C are the ends. Square brackets hold non-standard residues; d marks the D form. Peptide text beside a SMILES is read from it. * marks the point of attachment. hPhe(3,5-F2-4-CF3) = N[C@@H](CCc1cc(F)c(C(F)(F)F)c(F)c1)C(=O)O; hPhe(3-Cl-4-CF3) = N[C@@H](CCc1ccc(C(F)(F)F)c(Cl)c1)C(=O)O; NMePhe(4-Me) = CN[C@@H](Cc1ccc(C)cc1)C(=O)O; NMeAla(cPent) = CN[C@@H](CC1CCCC1)C(=O)O; NMeGly(cPent) = CN[C@H](C(=O)O)C1CCCC1; Phe(3-I) = N[C@@H](Cc1cccc(I)c1)C(=O)O; Pro(4,4-F2) = O=C(O)[C@@H]1CC(F)(F)CN1; NMeCha = CN[C@@H](CC1CCCCC1)C(=O)O; NMeChg = CN[C@H](C(=O)O)C1CCCCC1; NMeF = CN[C@@H](Cc1ccccc1)C(=O)O; NMeI = CC[C@H](C)[C@H](NC)C(=O)O; NMeD = CN[C@@H](CC(=O)O)C(=O)O; NMeL = CN[C@@H](CC(C)C)C(=O)O; hLeu = CC(C)CC[C@H](N)C(=O)O; NEtAla = CCN[C@@H](C)C(=O)O; NMeV = CN[C@H](C(=O)O)C(C)C; d(β3hA) = C[C@@H](N)CC(=O)O; Iva = CC[C@](C)(N)C(=O)O; Morpholide = C1CN(*)CCO1; NMeA = CN[C@@H](C)C(=O)O; NMeAib = CNC(C)(C)C(=O)O; Nle = CCCC[C@H](N)C(=O)O; Piperidide = C1CCN(*)CC1; Ac5c = NC1(C(=O)O)CCCC1; Aze = O=C(O)[C@@H]1CCN1; Ac3c = NC1(C(=O)O)CC1; Sar = CNCC(=O)O
Tested on: Human pancreatic cancer cell line AsPC-1 (G12D mutation Kras)
Experiment: AsPC-1 cell growth inhibition (AsPC-1 CGI)
Type: cell-based
Conditions: read-out: AsPC-1 cell growth inhibition, 50% growth inhibitory concentration (IC50 value); 96 hours, CellTiter-Glo, values classified in ranges
Procedure: Test compounds were serially dilated with dimethyl sulfoxide, and 200 nL was then dispensed to a U-bottom 96-well plate using Labcyte Echo. […] The cell suspension was dispensed to a. plate containing a test compound at 100 μL per well and incubated at 37° C. in a 5% carbon dioxide gas incubator. 96 hours later, 80 μL of CellTiter-Glo (Promega) was added to each well and fluorescence was measured.

**Q.** With `CC[C@H](C)[C@@H]1NC(=O)[C@H](CC(C)C)N(C)C(=O)C[C@@H](C(=O)N2CCCCC2)N(C)C(=O)[C@H](C(C)C)N(C)C(=O)[C@](C)(CC)NC(=O)[C@@H]2CCCN2C(=O)[C@H](CCc2ccc(C(F)(F)F)c(Cl)c2)NC(=O)CN(C)C(=O)[C@H](CC2CCCCC2)N(C)C(=O)[C@@H]2CCN2C(=O)[C@H](C)N(C)C1=O` [Compound 394] ([NMeL]I[NMeA][Aze][NMeCha][Sar][hPhe(3-Cl-4-CF3)]P[Iva][NMeV][NMeD]-Piperidide; lactam N-11) as the molecule, how does the IC50 read?
**A.** > 500 nM

**Q.** How did the IC50 turn out when `CC[C@H](C)[C@@H]1NC(=O)[C@H](CC(C)C)N(C)C(=O)C[C@@H](C)NC(=O)[C@H](C(C)C)N(C)C(=O)C2(CC2)NC(=O)[C@@H]2CCCN2C(=O)[C@H](CCc2ccc(C(F)(F)F)c(Cl)c2)NC(=O)CN(C)C(=O)[C@H](CC2CCCCC2)N(C)C(=O)CN(C)C(=O)CN(C)C1=O` [Compound 1111] (cyclo([Ac3c][NMeV][d(β3hA)][NMeL]I[Sar][Sar][NMeCha][Sar][hPhe(3-Cl-4-CF3)]P)) was run?
**A.** > 500 nM

**Q.** `CC[C@H](C)[C@@H]1NC(=O)[C@H](CC(C)C)N(C)C(=O)C[C@@H](C(=O)N(C)C)N(C)C(=O)[C@H]([C@@H](C)CC)N(C)C(=O)[C@H](C)NC(=O)[C@H](C)N(C)C(=O)[C@H](CCc2ccc(C(F)(F)F)c(Cl)c2)NC(=O)CN(C)C(=O)[C@H](Cc2ccc(C)cc2)N(C)C(=O)[C@@H]2CCN2C(=O)[C@H](C)N(C)C1=O` [Compound 715] ([NMeL]I[NMeA][Aze][NMePhe(4-Me)][Sar][hPhe(3-Cl-4-CF3)][NMeA]A[NMeI][NMeD]-NMe2; lactam N-11) was tested. Which IC50 did it give?
**A.** > 500 nM

**Q.** How did the IC50 turn out when `CC[C@H](C)[C@@H]1NC(=O)[C@H](C)N(CC)C(=O)C[C@@H](C)NC(=O)[C@H](C(C)C)N(C)C(=O)C2(CCCC2)NC(=O)[C@@H]2CCCN2C(=O)[C@H](CCc2ccc(C(F)(F)F)c(Cl)c2)NC(=O)CN(C)C(=O)[C@H](CC2CCCCC2)N(C)C(=O)CN(C)C(=O)CN(C)C1=O` [Compound 196] (cyclo([Ac5c][NMeV][d(β3hA)][NEtAla]I[Sar][Sar][NMeCha][Sar][hPhe(3-Cl-4-CF3)]P)) was run?
**A.** > 500 nM

**Q.** For `CC[C@H](C)[C@@H]1NC(=O)[C@H](CC(C)C)N(C)C(=O)C[C@@H](C(=O)N2CCCCC2)N(C)C(=O)[C@H](C2CCCCC2)N(C)C(=O)C2(CCCC2)NC(=O)[C@@H]2CCCN2C(=O)[C@H](CCc2ccc(C(F)(F)F)c(Cl)c2)NC(=O)CN(C)C(=O)[C@H](CC2CCCCC2)N(C)C(=O)[C@H](C)N(C)C(=O)CN(C)C1=O` [Compound 1186] ([NMeL]I[Sar][NMeA][NMeCha][Sar][hPhe(3-Cl-4-CF3)]P[Ac5c][NMeChg][NMeD]-Piperidide; lactam N-11), which IC50 is on record?
**A.** > 500 nM

**Q.** For `CC[C@H](C)[C@@H]1NC(=O)[C@H](CC(C)C)N(C)C(=O)C[C@@H](C(=O)N2CCOCC2)N(C)C(=O)[C@H](C2CCCCC2)N(C)C(=O)C2(CCCC2)NC(=O)[C@@H]2CC(F)(F)CN2C(=O)[C@H](CCc2ccc(C(F)(F)F)c(Cl)c2)NC(=O)CN(C)C(=O)[C@H](CC2CCCCC2)N(C)C(=O)CN(C)C(=O)CN(C)C1=O` [Compound 1194] ([NMeL]I[Sar][Sar][NMeCha][Sar][hPhe(3-Cl-4-CF3)][Pro(4,4-F2)][Ac5c][NMeChg][NMeD]-Morpholide; lactam N-11), which IC50 is on record?
**A.** ≤ 20 nM

**Q.** For `CC(C)CC[C@@H]1NC(=O)[C@H](CC(C)C)N(C)C(=O)C[C@@H](C(=O)N2CCCCC2)N(C)C(=O)[C@H](C2CCCCC2)N(C)C(=O)C2(CCCC2)NC(=O)[C@@H]2CCCN2C(=O)[C@H](CCc2ccc(C(F)(F)F)c(Cl)c2)NC(=O)CN(C)C(=O)[C@H](CC2CCCCC2)N(C)C(=O)CN(C)C(=O)CN(C)C1=O` [Compound 1651] ([NMeL][hLeu][Sar][Sar][NMeCha][Sar][hPhe(3-Cl-4-CF3)]P[Ac5c][NMeChg][NMeD]-Piperidide; lactam N-11), which IC50 is on record?
**A.** > 500 nM

**Q.** With `CCCC[C@@H]1NC(=O)[C@H](Cc2cccc(I)c2)NC(=O)CN(C)C(=O)[C@H](CC2CCCC2)N(C)C(=O)[C@@H]2CCN2C(=O)[C@H](C)N(C)C(=O)[C@H]([C@@H](C)CC)NC(=O)[C@H](CC(C)C)N(C)C(=O)C[C@@H](C(=O)N2CCCCC2)N(C)C(=O)[C@H](CC(C)C)NC(=O)C(C)(C)N(C)C1=O` [Compound 1432] ([NMeL]I[NMeA][Aze][NMeAla(cPent)][Sar][Phe(3-I)][Nle][NMeAib]L[NMeD]-Piperidide; lactam N-11) as the molecule, how does the IC50 read?
**A.** > 500 nM

**Q.** `CC[C@H](C)[C@@H]1NC(=O)[C@H](C)N(C)C(=O)C[C@@H](C(=O)N2CCCCC2)N(C)C(=O)[C@H](C(C)C)N(C)C(=O)C2(CCCC2)NC(=O)[C@@H]2CCCN2C(=O)[C@H](CCc2ccc(C(F)(F)F)c(Cl)c2)NC(=O)CN(C)C(=O)[C@H](Cc2ccccc2)N(C)C(=O)[C@@H]2CCCN2C(=O)CN(C)C1=O` [Compound 1753] ([NMeA]I[Sar]P[NMeF][Sar][hPhe(3-Cl-4-CF3)]P[Ac5c][NMeV][NMeD]-Piperidide; lactam N-11) was tested. Which IC50 did it give?
**A.** > 500 nM

**Q.** How did the IC50 turn out when `CC[C@H](C)[C@@H]1NC(=O)[C@H](CC(C)C)N(C)C(=O)C[C@@H](C(=O)N(C)C)N(C)C(=O)[C@H](C2CCCC2)N(C)C(=O)C2(CCCC2)NC(=O)[C@@H]2CC(F)(F)CN2C(=O)[C@H](CCc2cc(F)c(C(F)(F)F)c(F)c2)NC(=O)CN(C)C(=O)[C@H](CC2CCCCC2)N(C)C(=O)[C@@H]2CCN2C(=O)[C@H](C)N(C)C1=O` [Compound 1346] ([NMeL]I[NMeA][Aze][NMeCha][Sar][hPhe(3,5-F2-4-CF3)][Pro(4,4-F2)][Ac5c][NMeGly(cPent)][NMeD]-NMe2; lactam N-11) was run?
**A.** ≤ 20 nM

— patent US20240148821A1, “PHARMACEUTICAL USE OF CYCLIC PEPTIDE COMPOUND” (CHUGAI SEIYAKU KABUSHIKI KAISHA, priority 2021, published 2024)
